Source: patent publication US6630120B1, “Agents to increase the uptake of pharmaceuticals and diagnostic substances into solid tumors” (priority 1999, dated 2003)
Like-named read-outs stand apart in the source and are kept apart here.

Experiments:
implanted tumor and lung = experiment: Retention of 14C-carboplatin in solid tumors and in lung; format: in vivo, rat; settings: FIG. 8
Protocol: The carboplatin was administered two minutes into a five minute Cereport™ infusion.

[1] = tested on: MAT B-III metastatic lung tumors; experiment: Animal survival with MAT B-III metastatic lung tumors after carboplatin and Cereport; format: in vivo, rat; settings: FIG. 13
Protocol: MAT B-III cells were introduced into the lungs of 12 female F-344 Fisher rats by intrajugular injections of either 1×10^5 or 1×10^6 cells in 200 μl suspensions. The cells and animals were maintained and handled as described in Example 1. At various times following the injections, the number of surface tumor colonies on the lungs was assessed. Tumors were visually counted by injecting India ink into the trachea of the animals.
Finally, the effects of the administration of carboplatin and Cereport™ on the survival of animals who had been subjected to the implantation of MAT B-III metastatic lung surface tumors was assessed. In this study, 1×10^6 MAT B-III cells as a 200 μl suspension were implanted by intrajugular injection in 54 male Fischer rats. Sixteen days later, indwelling cannulae were inserted in the previously implanted jugular vein. On days 16 and 23, the animals received a continuous infusion of 5 mg/kg of carboplatin over a 15 minute period. Immediately following the 15 minute carboplatin infusion, the animals received a 10 minute continuous infusion of either saline or Cereport (1.5 μg/kg). The survival rates for the animals were then monitored.

[2] = tested on: MAT B-III tumor implanted into the liver; settings: FIG. 6
Protocol: MAT B-III cells (1×10^6) were implanted directly into the liver of male Fischer rats using a 25G needle and 1 ml tuberculin syringe. Fourteen days later, the animals received a 15 minute i.v. infusion of ^14C-carboplatin (100 μCi/kg) followed immediately by a 10 minute infusion of either saline or Cereport™ at 1.0 μg/kg. Following the saline or Cereport™ infusion, the liver was rapidly removed. The tumor was dissected free of the surrounding liver tissue and divided into inner and outer regions. A 1 mm strip of liver that immediately surrounded the tumor (inner ring) and the adjacent 1 mm strip of liver (outer ring) were also removed and assayed. In addition, an equivalent strip of liver from the untreated lobe, was removed and assayed. This liver strip served as a control.

Walker 256 tumor = settings: FIG. 9; male Wistar rats; 15 min carboplatin then 10 min Cereport 1.0 μg/kg
Protocol: Walker 256 cells (ATCC CCL-38) (1×10^7) were implanted into the subcutaneous space of the rear flank of male Wistar rats to create a solid tumor in situ in the same manner as previously described for the MAT B-III cells. Eight days later, the animals received a 15 minute i.v. infusion of ^14C-carboplatin (100 μCi/kg) followed immediately by a 10 minute infusion of either saline or Cereport™ at 1.0 μg/kg. Following the saline or Cereport™ infusion, the tumor was rapidly removed and dissected into inner and outer regions. The amount of radioactivity of each tumor region was determined by scintillation counts.

implanted tumor [3] = settings: FIG. 14; Cereport infusion for 10 minutes at 1 μg/kg
Source text: Interstitial fluid pressure is a severe impediment for administered substances into tumor interstitial spaces from the bloodstream.

[4] = tested on: implanted tumor and various organs; settings: FIG. 7; Cereport 1 μg/kg; carboplatin bolus two minutes into five minute Cereport infusion
Protocol: The carboplatin was administered as a bolus two minutes into a five minute Cereport™ infusion.

[5] = target: angiotensin converting enzyme (ACE) (Homo sapiens, UniProt P12821); settings: general statement, no method given; cited from earlier work
Sequence of angiotensin converting enzyme (ACE) (P12821 30-1306, species assumed): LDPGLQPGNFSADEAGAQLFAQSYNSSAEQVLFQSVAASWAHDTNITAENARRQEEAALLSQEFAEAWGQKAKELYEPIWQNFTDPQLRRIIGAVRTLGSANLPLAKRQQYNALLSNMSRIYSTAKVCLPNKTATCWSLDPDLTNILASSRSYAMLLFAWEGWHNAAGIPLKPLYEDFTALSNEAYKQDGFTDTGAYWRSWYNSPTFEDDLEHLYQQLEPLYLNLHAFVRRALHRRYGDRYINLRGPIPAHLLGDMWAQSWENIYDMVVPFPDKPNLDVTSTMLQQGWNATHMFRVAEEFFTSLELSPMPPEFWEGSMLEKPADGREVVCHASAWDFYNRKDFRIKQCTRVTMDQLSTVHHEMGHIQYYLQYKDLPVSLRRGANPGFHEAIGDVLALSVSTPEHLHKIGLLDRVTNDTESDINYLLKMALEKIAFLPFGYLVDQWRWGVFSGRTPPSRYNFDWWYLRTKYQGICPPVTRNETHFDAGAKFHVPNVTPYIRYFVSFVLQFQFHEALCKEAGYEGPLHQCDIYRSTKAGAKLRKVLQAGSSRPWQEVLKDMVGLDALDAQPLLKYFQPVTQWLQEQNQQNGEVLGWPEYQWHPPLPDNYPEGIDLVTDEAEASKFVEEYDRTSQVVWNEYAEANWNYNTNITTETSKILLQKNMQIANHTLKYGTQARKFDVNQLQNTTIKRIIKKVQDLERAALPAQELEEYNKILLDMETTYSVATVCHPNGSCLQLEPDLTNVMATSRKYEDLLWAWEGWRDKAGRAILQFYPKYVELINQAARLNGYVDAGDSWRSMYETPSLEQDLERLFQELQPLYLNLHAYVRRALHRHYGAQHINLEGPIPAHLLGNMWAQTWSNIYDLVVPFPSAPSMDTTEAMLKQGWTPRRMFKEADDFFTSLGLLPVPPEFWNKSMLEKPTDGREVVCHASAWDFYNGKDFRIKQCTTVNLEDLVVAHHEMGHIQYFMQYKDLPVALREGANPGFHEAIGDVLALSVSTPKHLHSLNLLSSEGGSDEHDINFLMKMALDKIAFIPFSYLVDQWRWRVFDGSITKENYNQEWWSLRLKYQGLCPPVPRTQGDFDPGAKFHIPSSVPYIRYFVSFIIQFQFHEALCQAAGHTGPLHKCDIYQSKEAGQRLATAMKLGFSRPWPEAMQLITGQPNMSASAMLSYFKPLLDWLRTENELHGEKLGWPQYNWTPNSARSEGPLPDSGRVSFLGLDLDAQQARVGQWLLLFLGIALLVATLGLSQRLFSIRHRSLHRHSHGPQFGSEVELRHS

[6] = tested on: MAT B (III) rat mammary adenocarcinoma tumor implanted in the flank
Protocol: A series of studies were carried out on rat hosts in which suspended tumor cells had been subcutaneously implanted in the flank of the animal to create a solid tumor in situ. The effects of the administration of Cereport™ on the incorporation of ^14C-carboplatin into the tumor were evaluated.
Male Fischer rats (170-220 g; Taconic Farms, Germantown, N.Y.) were used in these studies. Animals were housed in pairs in polypropylene cages with free access to food and water. The vivarium was maintained on a 12 h light: 12 h dark cycle with a room temperature of 22±1° C. and relative humidity level of 50±5%.
The MAT B (III) cell line (ATCC CRL-1666), a rat ascites mammary adenocarcinoma, was used to produce peripheral tumors upon implantation in rats. Cells were grown and maintained at 37° C. in a 95% air/5% CO2 humidified atmosphere using McCoy's medium 5A (GIBCO) supplemented with 20 mM HEPES, 1/2X Antibody-Antimycotic, and 10% heat-inactivated Fetal Bovine Serum.
Immediately prior to implantation, MAT B-III cells were suspended in 1.2% methyl cellulose at a density of 5×10^6/ml. 200 μl of this suspension (1×10^6 cells) was injected subcutaneously into the flank of each animal using a 22G needle.
One week after tumor implantation, and under urethane anesthesia (1.8 g/kg; i.p.), cannulae (PE50, Clay Adams, Bectin Dickinson, Sparks, Md.) were placed in the jugular vein for drug administration and both femoral arteries for the measurement of physiological parameters.
Cereport™ (RMP-7, Alkermes, Inc., Cambridge, Mass.) and ^14C-carboplatin or -dextran (SA=144 μCi/mg and 1.08 μCi/mg respectively) were dissolved in sterile 0.9% saline and infused intravenously using a syringe pump at a rate of 0.05 ml/min over the entire administration period. Using the human clinical protocol as a basis, ^14C-carboplatin or dextran (100 μCi/kg) was infused for 15 minutes followed immediately by a 10 minute infusion of Cereport™. Throughout the experiment, body temperature was maintained normothermic (37.0±1.0° C.) and arterial blood gases, pH, and blood pressure were monitored. Animals with physiological values outside the normal ranges were not used.
At the end of the drug administration protocol, rats were sacrificed and the peripheral tumor was rapidly removed. A 1-2 mm thick slice was cut from the center of tumor. The slice was then divided into two equal parts comprising the center of the dissected piece (inner tumor) and the outside edge (outer tumor). Each tumor sample was weighed and placed into a scintillation vial and the amount of radioactivity (nCi/g) was computed for each region using scintillation counts as a measure of the radioactivity.

implanted tumor [7] = settings: FIG. 10
Protocol: In some instances, Cereport™ is administered in addition to carboplatin. The carboplatin was infused for 15-minutes followed immediately by a 10 minute infusion of Cereport™ at 1.5 μg/kg.

[8] = tested on: MAT B-III tumor in rear flank or mammary fat pads; settings: FIG. 5; female Fischer rats; 15 min carboplatin then 10 min Cereport 1.0 μg/kg
Protocol: MAT B-III cells (1×10^6) were implanted in two anatomically distinct sites in female Fischer rats. The tumor cells were implanted into either the subcutaneous space of the rear flank or orthotopically into mammary fat pads. Seven days later, the animals received a 15 minute i.v. infusion of ^14C-Carboplatin (100 μCi/kg) followed immediately by a 10 minute infusion of either saline or Cereport™ at 1.0 μg/kg. Following the saline or Cereport™ infusion, the tumor was rapidly removed and dissected into inner and outer regions. The amount of radioactivity of each tumor region was determined by scintillation counts.

[9] = eighth day, carboplatin plus Cereport 1.5 μg/kg

For `N.N.O=C([O-])C1(C(=O)[O-])CCC1.[Pt+2]` [carboplatin], the “retention of carboplatin in tumor tissue” value (implanted tumor and lung; after Cereport administration, carboplatin two minutes into five minute Cereport infusion) was “at least 90 minutes”, the “retention of carboplatin in lung” value (implanted tumor and lung; after the initial uptake following Cereport administration) was “not retained” and the “prolongation of survival versus no carboplatin” value ([1]; carboplatin 5 mg/kg by itself (followed by saline) on days 16 and 23) was “approximately 10 days”.
For “arginine-proline-hydroxyproline-glycine-thienylalanine-serine-proline-4-Me-tyrosineψ(CH2NH)arginine [Cereport™]”, the “carboplatin uptake into tumor implanted in the liver” value ([2]; 15 min carboplatin then 10 min Cereport 1.0 μg/kg) was “significantly taken up”, the “carboplatin uptake into liver tissue adjacent to the tumor” value ([2]; inner and outer ring liver strips, Cereport 1.0 μg/kg) was “does not have a significant effect” and the “carboplatin uptake into control strip of liver” value ([2]; strip from untreated lobe, Cereport 1.0 μg/kg) was “does not have a significant effect”. For the same compound, the “carboplatin uptake into inner and outer region of Walker 256 tumor” value (Walker 256 tumor) was “significantly taken up”, the “decrease of interstitial fluid pressure in implanted tumors” value (implanted tumor [3]) was “up to 40%” and the “carboplatin uptake in tumor tissue compared with heart, lung and liver” value [4] was “far surpasses”. The “carboplatin uptake into heart, lung and liver” value [4] was “some uptake”, the “degradation by angiotensin converting enzyme (ACE)” value [5] was “not significantly degraded” and the “carboplatin uptake into inner tumor and outer tumor” value ([6]; FIG. 1, carboplatin bolus two minutes into a ten minute Cereport infusion, three Cereport infusion amounts, vs no Cereport) was “significantly taken up”. For the same compound, the “carboplatin uptake into inner tumor and outer tumor” value ([6]; FIG. 2, carboplatin bolus two minutes into a five minute Cereport infusion, Cereport 0.5 μg/kg) was “not significantly taken up”, the “carboplatin uptake into inner tumor and outer tumor” value ([6]; FIG. 2, carboplatin bolus two minutes into a five minute Cereport infusion, Cereport 0.75 μg/kg) was “significantly taken up” and the “carboplatin uptake into inner tumor and outer tumor” value ([6]; FIG. 2, carboplatin bolus two minutes into a five minute Cereport infusion, Cereport 1.0 μg/kg) was “significantly taken up”. For the same compound, the “carboplatin uptake into inner tumor and outer tumor” value ([6]; FIG. 2, carboplatin bolus two minutes into a five minute Cereport infusion, Cereport 1.75 μg/kg) was “significantly taken up”, the “carboplatin uptake into inner tumor and outer tumor” value ([6]; FIG. 2, carboplatin bolus two minutes into a five minute Cereport infusion, Cereport 2.5 μg/kg) was “significantly taken up” and the “carboplatin uptake into inner tumor and outer tumor” value ([6]; FIG. 2, carboplatin bolus two minutes into a five minute Cereport infusion, Cereport 5.0 μg/kg) was “not significantly taken up”. For the same compound, the “carboplatin uptake into inner tumor and outer tumor” value ([6]; FIG. 3, carboplatin infused 15 minutes prior to Cereport, Cereport 0.36 μg/kg) was “possible exception”, the “carboplatin uptake into inner tumor and outer tumor” value ([6]; FIG. 3, carboplatin infused 15 minutes prior to Cereport, all Cereport doses other than 0.36 μg/kg) was “significantly taken up” and the “dextran (MW 70 kDa) uptake into inner tumor and outer tumor” value ([6]; FIG. 4, dextran infused 15 minutes prior to Cereport, three Cereport infusion amounts, vs no Cereport) was “significantly taken up”. For the same compound, the “regression of the implanted tumor in comparison to carboplatin alone” value (implanted tumor [7]; 15 min carboplatin then 10 min Cereport 1.5 μg/kg) was “markedly cause regression”, the “tumor size relative to size if Cereport had not been administered with the carboplatin” value (implanted tumor [7]; [9]) was “approximately one half” and the “tumor size relative to size if no carboplatin had been administered” value (implanted tumor [7]; [9]) was “approximately one third”. The “additional extension of survival profile beyond carboplatin alone” value ([1]; carboplatin 5 mg/kg followed by Cereport 1.5 μg/kg on days 16 and 23) was “approximately 10 days”, the “carboplatin uptake into implanted tumor located in the flank” value [8] was “significantly taken up” and the “carboplatin uptake into implanted tumor located in the mammary pad” value [8] was “significantly taken up”.
